Measured values published in publication PMC6199744, “Development of Chemical Proteomics for the Folateome and Analysis of the Kinetoplastid Folateome” (ACS Infectious Diseases, 2018).
Like-named read-outs stand apart in the source and are kept apart here.

Key:
Assay type in all cases: binding
[1] = molecular target: T1, HeLa cell extract proteins (Homo sapiens, UniProt Q13011)
T1 construct: endogenous in cells; host or cells: HeLa cell extract
T1 sequence (Q13011 34-328): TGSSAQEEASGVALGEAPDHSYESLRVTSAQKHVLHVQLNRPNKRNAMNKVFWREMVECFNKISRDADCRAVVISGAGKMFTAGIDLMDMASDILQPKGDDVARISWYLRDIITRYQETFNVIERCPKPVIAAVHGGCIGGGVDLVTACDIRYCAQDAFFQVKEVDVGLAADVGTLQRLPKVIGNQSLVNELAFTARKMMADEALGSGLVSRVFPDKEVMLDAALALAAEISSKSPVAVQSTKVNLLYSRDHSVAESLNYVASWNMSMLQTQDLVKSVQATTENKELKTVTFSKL

[2] = molecular target: T2, HeLa cell extract proteins (Homo sapiens, UniProt Q15365)
T2 construct: endogenous in cells; host or cells: HeLa cell extract
T2 sequence (Q15365 whole entry): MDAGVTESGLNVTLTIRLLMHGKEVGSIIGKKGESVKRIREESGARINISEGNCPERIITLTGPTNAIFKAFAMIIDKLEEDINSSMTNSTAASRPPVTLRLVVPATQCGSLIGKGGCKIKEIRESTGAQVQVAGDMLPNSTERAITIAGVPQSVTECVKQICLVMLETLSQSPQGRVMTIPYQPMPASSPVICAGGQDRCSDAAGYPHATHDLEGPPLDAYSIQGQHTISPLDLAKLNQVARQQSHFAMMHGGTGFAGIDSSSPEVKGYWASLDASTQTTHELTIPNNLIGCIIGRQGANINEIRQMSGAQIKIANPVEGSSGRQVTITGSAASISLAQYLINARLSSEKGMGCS

[3] = molecular target: T3, HeLa cell extract proteins (Homo sapiens, UniProt P30086)
T3 construct: endogenous in cells; host or cells: HeLa cell extract
T3 sequence (P30086 whole entry): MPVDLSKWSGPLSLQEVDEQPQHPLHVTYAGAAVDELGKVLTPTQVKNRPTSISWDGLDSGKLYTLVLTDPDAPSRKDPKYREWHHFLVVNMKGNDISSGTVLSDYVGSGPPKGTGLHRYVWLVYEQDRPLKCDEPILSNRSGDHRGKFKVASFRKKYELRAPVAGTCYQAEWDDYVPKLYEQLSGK

[4] = molecular target: T4, HeLa cell extract proteins (Homo sapiens, UniProt Q8NBE8)
T4 construct: endogenous in cells; host or cells: HeLa cell extract
T4 sequence (Q8NBE8 1-558): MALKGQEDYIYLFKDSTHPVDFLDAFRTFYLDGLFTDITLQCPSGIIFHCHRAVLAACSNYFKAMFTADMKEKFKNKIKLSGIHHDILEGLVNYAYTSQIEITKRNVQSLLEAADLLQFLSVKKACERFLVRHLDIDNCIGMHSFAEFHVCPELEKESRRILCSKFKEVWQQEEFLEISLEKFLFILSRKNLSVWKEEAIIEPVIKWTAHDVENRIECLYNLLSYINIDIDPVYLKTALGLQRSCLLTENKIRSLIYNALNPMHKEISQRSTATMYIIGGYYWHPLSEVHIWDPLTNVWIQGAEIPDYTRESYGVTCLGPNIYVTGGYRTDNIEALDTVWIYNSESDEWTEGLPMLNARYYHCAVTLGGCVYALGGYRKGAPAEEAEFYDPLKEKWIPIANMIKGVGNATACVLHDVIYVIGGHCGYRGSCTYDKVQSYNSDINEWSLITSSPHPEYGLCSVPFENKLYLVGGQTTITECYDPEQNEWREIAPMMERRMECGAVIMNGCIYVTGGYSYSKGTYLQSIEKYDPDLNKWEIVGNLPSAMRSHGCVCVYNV

[5] = molecular target: T5, HeLa cell extract proteins (Homo sapiens, UniProt Q9H000)
T5 construct: endogenous in cells; host or cells: HeLa cell extract
T5 sequence (Q9H000 1-416): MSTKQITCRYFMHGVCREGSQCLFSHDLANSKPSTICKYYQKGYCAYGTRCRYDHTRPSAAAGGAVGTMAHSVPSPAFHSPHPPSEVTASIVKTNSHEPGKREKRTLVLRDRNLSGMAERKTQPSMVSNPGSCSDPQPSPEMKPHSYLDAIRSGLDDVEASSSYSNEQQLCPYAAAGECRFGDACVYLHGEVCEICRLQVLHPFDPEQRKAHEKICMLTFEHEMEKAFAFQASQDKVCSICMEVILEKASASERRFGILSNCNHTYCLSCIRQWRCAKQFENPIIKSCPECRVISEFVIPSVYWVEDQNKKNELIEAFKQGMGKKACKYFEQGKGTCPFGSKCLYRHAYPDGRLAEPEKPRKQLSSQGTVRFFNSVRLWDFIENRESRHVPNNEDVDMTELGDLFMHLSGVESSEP

[6] = molecular target: T6, HeLa cell extract proteins (Homo sapiens, UniProt Q99873)
T6 construct: endogenous in cells; host or cells: HeLa cell extract
T6 sequence (Q99873 whole entry): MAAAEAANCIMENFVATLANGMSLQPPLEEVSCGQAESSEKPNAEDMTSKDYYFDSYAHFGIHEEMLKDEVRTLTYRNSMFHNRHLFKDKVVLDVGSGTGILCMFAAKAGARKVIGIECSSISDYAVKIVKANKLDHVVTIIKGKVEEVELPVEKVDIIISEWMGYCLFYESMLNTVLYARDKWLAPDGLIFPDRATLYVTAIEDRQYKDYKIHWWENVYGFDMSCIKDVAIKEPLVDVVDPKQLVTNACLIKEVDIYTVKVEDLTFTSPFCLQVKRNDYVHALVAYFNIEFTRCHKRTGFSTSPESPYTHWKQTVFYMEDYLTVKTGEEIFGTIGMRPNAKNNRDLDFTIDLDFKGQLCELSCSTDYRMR

[7] = molecular target: T7, HeLa cell extract proteins (Homo sapiens, UniProt Q9Y233)
T7 construct: endogenous in cells; host or cells: HeLa cell extract
T7 sequence (Q9Y233 whole entry): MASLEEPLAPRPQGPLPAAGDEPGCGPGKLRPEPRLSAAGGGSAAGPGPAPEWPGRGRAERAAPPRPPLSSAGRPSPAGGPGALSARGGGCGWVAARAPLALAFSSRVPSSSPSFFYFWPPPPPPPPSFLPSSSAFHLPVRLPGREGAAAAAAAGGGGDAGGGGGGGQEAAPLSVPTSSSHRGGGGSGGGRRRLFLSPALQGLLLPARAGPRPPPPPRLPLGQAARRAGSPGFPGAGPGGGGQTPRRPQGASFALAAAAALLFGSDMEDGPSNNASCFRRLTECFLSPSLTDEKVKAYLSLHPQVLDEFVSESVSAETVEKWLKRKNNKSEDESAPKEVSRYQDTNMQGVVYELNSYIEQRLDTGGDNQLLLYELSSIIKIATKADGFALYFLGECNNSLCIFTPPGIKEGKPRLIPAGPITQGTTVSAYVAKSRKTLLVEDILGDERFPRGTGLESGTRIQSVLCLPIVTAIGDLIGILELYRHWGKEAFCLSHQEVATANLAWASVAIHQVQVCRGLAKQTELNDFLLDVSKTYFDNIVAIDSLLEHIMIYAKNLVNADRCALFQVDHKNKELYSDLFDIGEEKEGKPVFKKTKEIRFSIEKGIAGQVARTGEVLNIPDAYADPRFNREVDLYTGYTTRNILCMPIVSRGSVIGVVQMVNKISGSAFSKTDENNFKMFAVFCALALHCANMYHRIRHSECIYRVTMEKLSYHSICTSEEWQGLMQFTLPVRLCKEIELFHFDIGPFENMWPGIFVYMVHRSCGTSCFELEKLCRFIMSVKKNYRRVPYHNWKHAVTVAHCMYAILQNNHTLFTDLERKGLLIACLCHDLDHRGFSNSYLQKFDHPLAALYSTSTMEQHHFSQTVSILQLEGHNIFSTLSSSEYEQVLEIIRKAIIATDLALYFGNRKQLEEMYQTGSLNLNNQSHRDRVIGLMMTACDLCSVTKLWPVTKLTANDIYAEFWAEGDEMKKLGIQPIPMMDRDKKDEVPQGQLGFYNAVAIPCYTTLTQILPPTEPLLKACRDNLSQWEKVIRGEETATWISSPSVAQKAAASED

[8] = molecular target: T8, HeLa cell extract proteins (Homo sapiens, UniProt P60709)
T8 construct: endogenous in cells; host or cells: HeLa cell extract

[9] = molecular target: T9, HeLa cell extract proteins (Homo sapiens, UniProt P13674)
T9 construct: endogenous in cells; host or cells: HeLa cell extract
T9 sequence (P13674 18-534): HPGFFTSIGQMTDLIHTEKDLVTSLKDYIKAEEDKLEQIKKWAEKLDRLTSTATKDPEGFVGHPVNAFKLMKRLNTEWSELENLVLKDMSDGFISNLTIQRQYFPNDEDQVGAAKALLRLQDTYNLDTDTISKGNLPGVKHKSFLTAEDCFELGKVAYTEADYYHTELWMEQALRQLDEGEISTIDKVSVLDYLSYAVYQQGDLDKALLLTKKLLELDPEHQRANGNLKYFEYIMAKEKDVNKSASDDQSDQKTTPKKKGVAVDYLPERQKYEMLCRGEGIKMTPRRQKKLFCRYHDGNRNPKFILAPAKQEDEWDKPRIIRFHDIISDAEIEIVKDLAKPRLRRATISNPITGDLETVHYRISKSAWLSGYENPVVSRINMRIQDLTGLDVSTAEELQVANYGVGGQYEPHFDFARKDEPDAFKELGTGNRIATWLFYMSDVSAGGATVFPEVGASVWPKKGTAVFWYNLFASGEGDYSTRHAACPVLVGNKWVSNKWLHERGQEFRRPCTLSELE

[10] = molecular target: T10, HeLa cell extract proteins (Homo sapiens, UniProt P06744)
T10 construct: endogenous in cells; host or cells: HeLa cell extract

[11] = molecular target: T11, HeLa cell extract proteins (Homo sapiens, UniProt P55072)
T11 construct: endogenous in cells; host or cells: HeLa cell extract
T11 sequence (P55072 whole entry): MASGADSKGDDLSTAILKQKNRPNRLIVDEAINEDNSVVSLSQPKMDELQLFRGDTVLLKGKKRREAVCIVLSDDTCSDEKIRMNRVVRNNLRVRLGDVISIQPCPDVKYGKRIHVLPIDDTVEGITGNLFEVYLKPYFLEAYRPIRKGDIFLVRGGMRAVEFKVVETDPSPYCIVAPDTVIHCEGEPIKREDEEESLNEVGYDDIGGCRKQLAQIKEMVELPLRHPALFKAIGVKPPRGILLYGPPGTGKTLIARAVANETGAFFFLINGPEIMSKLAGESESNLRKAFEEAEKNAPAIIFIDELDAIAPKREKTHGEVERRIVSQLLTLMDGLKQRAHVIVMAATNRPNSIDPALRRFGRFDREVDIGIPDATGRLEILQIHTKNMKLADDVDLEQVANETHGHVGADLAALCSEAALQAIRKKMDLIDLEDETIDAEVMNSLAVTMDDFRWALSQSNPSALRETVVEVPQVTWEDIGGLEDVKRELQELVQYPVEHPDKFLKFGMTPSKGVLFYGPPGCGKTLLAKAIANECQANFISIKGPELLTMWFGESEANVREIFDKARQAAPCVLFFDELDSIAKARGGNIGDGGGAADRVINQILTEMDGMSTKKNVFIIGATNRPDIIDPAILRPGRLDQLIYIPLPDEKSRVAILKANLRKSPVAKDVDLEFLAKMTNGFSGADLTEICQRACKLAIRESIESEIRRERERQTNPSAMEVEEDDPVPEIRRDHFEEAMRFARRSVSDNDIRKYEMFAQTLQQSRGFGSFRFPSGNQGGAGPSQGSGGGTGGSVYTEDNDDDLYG

[12] = molecular target: T12, HeLa cell extract proteins (Homo sapiens, UniProt P15121)
T12 construct: endogenous in cells; host or cells: HeLa cell extract

[13] = molecular target: T13, HeLa cell extract proteins (Homo sapiens, UniProt P15104)
T13 construct: endogenous in cells; host or cells: HeLa cell extract
T13 sequence (P15104 whole entry): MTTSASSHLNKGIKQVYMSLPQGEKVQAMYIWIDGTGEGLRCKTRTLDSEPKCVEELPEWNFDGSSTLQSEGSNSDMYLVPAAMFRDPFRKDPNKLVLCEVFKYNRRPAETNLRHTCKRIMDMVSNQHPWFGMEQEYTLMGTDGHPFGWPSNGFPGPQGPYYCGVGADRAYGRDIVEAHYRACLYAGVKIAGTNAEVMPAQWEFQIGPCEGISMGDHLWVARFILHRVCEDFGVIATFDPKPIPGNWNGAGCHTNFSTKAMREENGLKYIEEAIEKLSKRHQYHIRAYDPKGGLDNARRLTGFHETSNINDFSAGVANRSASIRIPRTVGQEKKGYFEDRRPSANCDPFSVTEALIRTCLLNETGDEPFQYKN

[14] = molecular target: T14, HeLa cell extract proteins (Homo sapiens, UniProt P54136)
T14 construct: endogenous in cells; host or cells: HeLa cell extract
T14 sequence (P54136 1-660): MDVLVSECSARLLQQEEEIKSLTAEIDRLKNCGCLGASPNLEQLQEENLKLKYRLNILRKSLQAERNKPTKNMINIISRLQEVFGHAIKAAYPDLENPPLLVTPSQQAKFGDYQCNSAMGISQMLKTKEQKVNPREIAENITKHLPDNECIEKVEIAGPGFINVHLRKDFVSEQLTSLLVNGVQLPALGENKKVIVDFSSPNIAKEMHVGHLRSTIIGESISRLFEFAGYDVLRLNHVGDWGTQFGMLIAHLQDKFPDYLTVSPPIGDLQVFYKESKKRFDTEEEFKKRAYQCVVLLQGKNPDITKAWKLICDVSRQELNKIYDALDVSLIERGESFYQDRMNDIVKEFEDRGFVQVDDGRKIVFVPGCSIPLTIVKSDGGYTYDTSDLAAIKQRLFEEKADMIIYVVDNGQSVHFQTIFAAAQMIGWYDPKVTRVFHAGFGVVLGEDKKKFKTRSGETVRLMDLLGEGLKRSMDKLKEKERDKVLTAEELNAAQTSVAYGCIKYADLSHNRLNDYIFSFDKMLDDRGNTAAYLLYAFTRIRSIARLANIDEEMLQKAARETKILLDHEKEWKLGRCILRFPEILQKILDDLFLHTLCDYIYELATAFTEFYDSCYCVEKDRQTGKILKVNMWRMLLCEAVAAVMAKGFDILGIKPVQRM

[15] = molecular target: T15, HeLa cell extract proteins (Homo sapiens, UniProt Q96P70)
T15 construct: endogenous in cells; host or cells: HeLa cell extract
T15 sequence (Q96P70 whole entry): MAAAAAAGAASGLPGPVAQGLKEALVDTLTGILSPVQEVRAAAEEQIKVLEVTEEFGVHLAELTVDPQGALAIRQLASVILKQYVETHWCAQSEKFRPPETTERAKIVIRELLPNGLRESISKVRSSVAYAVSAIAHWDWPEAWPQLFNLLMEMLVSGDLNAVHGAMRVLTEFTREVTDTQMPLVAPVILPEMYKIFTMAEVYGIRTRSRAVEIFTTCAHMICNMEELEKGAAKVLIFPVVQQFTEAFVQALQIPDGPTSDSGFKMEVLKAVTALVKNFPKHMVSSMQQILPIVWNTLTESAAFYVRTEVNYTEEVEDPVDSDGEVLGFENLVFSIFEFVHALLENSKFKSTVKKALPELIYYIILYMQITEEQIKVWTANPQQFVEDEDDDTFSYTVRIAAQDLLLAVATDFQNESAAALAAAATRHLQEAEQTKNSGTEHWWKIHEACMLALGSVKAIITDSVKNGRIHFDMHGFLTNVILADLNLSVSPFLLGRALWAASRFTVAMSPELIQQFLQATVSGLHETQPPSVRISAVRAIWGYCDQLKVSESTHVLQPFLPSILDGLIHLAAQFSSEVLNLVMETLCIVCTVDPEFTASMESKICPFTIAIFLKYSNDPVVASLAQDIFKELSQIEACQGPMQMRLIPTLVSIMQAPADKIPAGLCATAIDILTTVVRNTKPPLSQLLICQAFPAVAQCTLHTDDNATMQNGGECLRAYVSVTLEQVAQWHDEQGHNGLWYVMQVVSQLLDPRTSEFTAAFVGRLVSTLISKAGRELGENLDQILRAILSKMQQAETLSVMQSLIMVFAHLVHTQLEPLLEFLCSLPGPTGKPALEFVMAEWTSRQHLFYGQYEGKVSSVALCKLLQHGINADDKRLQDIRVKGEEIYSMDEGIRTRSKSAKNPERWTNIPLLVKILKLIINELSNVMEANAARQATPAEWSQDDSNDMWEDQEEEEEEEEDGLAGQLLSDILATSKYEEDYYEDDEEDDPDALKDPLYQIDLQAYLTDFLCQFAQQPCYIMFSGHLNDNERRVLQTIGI

## Nc1nc2cccc(-c3ccccc3)c2n1Cc1ccc(Cl)c(Cl)c1 [compound 3]
[1]; HeLa, protein ECH1
  fold changes relative to vehicle control: 1
[2]; protein PCBP1, HeLa
  fold changes relative to vehicle control: 0.94
[3]; protein PEBP1, HeLa
  fold changes relative to vehicle control: 1.08
[4]; protein KLHL23, HeLa
  fold changes relative to vehicle control: 0.92
[5]; captured protein MKRN2, HeLa
  fold changes relative to vehicle control: 0.89
[6]; protein PRMT1, HeLa
  fold changes relative to vehicle control: 0.93
[7]; captured protein PDE10A, HeLa
  fold changes relative to vehicle control: 0.99
[8]; protein ACTB, HeLa
  fold changes relative to vehicle control: 1.07
[9]; HeLa, protein P4HA1
  fold changes relative to vehicle control: 0.98
[10]; HeLa, protein GPI (CDNA FLJ56429, HIGHLY SIMILAR TO GLUCOSE-6-PHOSPHATE ISOMERASE.)
  fold changes relative to vehicle control: 0.93 fold
[11]; protein VCP, HeLa
  fold changes relative to vehicle control: 0.94
[12]; protein AKR1B1, HeLa
  fold changes relative to vehicle control: 0.8
[13]; captured protein GLUL, HeLa
  fold changes relative to vehicle control: 0.88
[14]; protein RARS, HeLa
  fold changes relative to vehicle control: 0.94
[15]; captured protein IPO9, HeLa
  fold changes relative to vehicle control: 1.07

## Nc1nc2[nH]cc(CCc3ccc(C(=O)N[C@@H](CCC(=O)O)C(=O)O)cc3)c2c(=O)[nH]1 [PTX, pemetrexed]
[1]
  fold changes relative to vehicle control: 1.01
[2]
  fold changes relative to vehicle control: 0.88
[3]
  fold changes relative to vehicle control: 1.14
[4]
  fold changes relative to vehicle control: 0.8
[5]
  fold changes relative to vehicle control: 0.91
[6]
  fold changes relative to vehicle control: 0.93
[7]
  fold changes relative to vehicle control: 0.66
[8]
  fold changes relative to vehicle control: 1.18
[9]
  fold changes relative to vehicle control: 0.88
[10]
  fold changes relative to vehicle control: 1.08
[11]
  fold changes relative to vehicle control: 0.98
[12]
  fold changes relative to vehicle control: 1.22
[13]
  fold changes relative to vehicle control: 0.84
[14]
  fold changes relative to vehicle control: 0.93
[15]
  fold changes relative to vehicle control: 0.91

## Nc1nc2c(c(=O)[nH]1)N(C=O)C(CNc1ccc(C(=O)N[C@@H](CCC(=O)O)C(=O)O)cc1)CN2 (stereo partly drawn) [LEU, leucovorin]
[1]; HeLa, protein ECH1
  fold changes relative to vehicle control: 1.04
[2]; HeLa, protein PCBP1
  fold changes relative to vehicle control: 0.92
[3]; HeLa, protein PEBP1
  fold changes relative to vehicle control: 0.89
[4]; HeLa, protein KLHL23
  fold changes relative to vehicle control: 0.91
[5]; HeLa, protein MKRN2 (MAKORIN-2)
  fold changes relative to vehicle control: 1.02
[6]; HeLa, protein PRMT1
  fold changes relative to vehicle control: 0.94
[7]; protein PDE10A, HeLa
  fold changes relative to vehicle control: 1.01
[8]; HeLa, protein ACTB
  fold changes relative to vehicle control: 1.13
[9]; HeLa, captured protein P4HA1
  fold changes relative to vehicle control: 1.02
[10]; HeLa, protein GPI
  fold changes relative to vehicle control: 0.98
[11]; HeLa, protein VCP
  fold changes relative to vehicle control: 0.98
[12]; HeLa, protein AKR1B1
  fold changes relative to vehicle control: 1.1
[13]; HeLa, protein GLUL
  fold changes relative to vehicle control: 0.62
[14]; HeLa, captured protein RARS
  fold changes relative to vehicle control: 0.97
[15]; HeLa, protein IPO9
  fold changes relative to vehicle control: 0.87
